Paper PMC11974928 (bioRxiv, 2025)

System: GL261 cells
Test: Orthotopic GL261 allograft survival
Type: in vivo, mouse
Conditions: C57BL/6, 25 mg/kg 3x weekly, compared to vehicle

**Q.** With CCN1CCN(Cc2ccc(Nc3ncc(F)c(-c4cc(F)c5nc(C)n(C(C)C)c5c4)n3)nc2)CC1 [Abemaciclib] as the compound, how does the “overall survival of glioma-bearing mice” value read?
**A.** effective
